Source: patent publication US12780800B1, “Triazole-pyridinyl substituted azacyclohexyl acetic acid compounds as LPA receptor antagonists” (Viva Star Biosciences Limited, priority 2021, dated 2022)

Target: T1, LPA1 (Homo sapiens, UniProt Q92633)
T1 construct: ProLink (PK) beta-galactosidase enzyme-fragment tag; host or cells: CHO-K1
Experiment: LPA1 calcium flux assay (LPA1 functional antagonist assay)
Assay type: cell-based
Details: PathHunter CHO-K1 EDG2 β-Arrestin cell line; calcium indicator dye; stimulated with EC80 concentration of LPA; FLIPR Tetra
Summary of the method: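 The LPA1 antagonist readout was intracellular calcium flux, and IC50 values were calculated from it. Plates stood 30 min at RT after compound addition. Cells, grown overnight, had first taken up calcium dye over 45 min at 37 °C.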

T1 sequence (Q92633 whole entry, the tested form may be a part): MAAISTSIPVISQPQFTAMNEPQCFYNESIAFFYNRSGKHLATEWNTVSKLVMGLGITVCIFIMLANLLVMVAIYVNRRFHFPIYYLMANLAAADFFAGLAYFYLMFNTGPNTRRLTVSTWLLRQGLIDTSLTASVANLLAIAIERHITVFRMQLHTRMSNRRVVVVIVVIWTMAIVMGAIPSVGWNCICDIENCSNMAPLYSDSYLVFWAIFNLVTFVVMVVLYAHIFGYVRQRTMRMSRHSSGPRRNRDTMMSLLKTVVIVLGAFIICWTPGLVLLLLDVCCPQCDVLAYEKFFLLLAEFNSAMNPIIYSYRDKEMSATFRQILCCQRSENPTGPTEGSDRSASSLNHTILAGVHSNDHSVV

Compound	IC50
CCCc1cccnc1OCc1c(-c2ccc(N3CCC(CC(=O)O)C(F)(F)C3)c(C)n2)nnn1C (centres unmarked) [Example 113, 2-(3,3-difluoro-1-(2-methyl-6-(1-methyl-5-(((3-propylpyridin-2-yl)oxy)methyl)-1H-1,2,3-triazol-4-yl)pyridin-3-yl)piperidin-4-yl)acetic acid]	500 to 5000 nM
CCc1nc(-c2nnn(C)c2COc2noc(CC3CC3)n2)ccc1N1C[C@@H](CC(=O)O)CC(F)(F)C1 [Example 116, (S)-2-(1-(6-(5-(((5-(cyclopropylmethyl)-1,2,4-oxadiazol-3-yl)oxy)methyl)-1-methyl-1H-1,2,3-triazol-4-yl)-2-ethylpyridin-3-yl)-5,5-difluoropiperidin-3-yl)acetic acid]	< 100 nM
CCc1nc(-c2cnn(C)c2COc2noc(CC3CC3)n2)ncc1N1C[C@@H](CC(=O)O)CC(F)(F)C1 [Example 118, (S)-2-(1-(2-(5-(((5-(cyclopropylmethyl)-1,2,4-oxadiazol-3-yl)oxy)methyl)-1-methyl-1H-pyrazol-4-yl)-4-ethylpyrimidin-5-yl)-5,5-difluoropiperidin-3-yl)acetic acid]	> 5000 nM
CCc1nc(-c2nnn(C)c2COc2noc(C3CCC3)n2)ccc1N1C[C@@H](CC(=O)O)CC(F)(F)C1 [Example 119, (S)-2-(1-(6-(5-(((5-cyclobutyl-1,2,4-oxadiazol-3-yl)oxy)methyl)-1-methyl-1H-1,2,3-triazol-4-yl)-2-ethylpyridin-3-yl)-5,5-difluoropiperidin-3-yl)acetic acid]	100 to 500 nM
CCc1nc(-c2nnn(C)c2CNc2noc(C3CCC3)n2)ccc1N1C[C@@H](CC(=O)O)CC(F)(F)C1 [Example 120, (S)-2-(1-(6-(5-(((5-cyclobutyl-1,2,4-oxadiazol-3-yl)amino)methyl)-1-methyl-1H-1,2,3-triazol-4-yl)-2-ethylpyridin-3-yl)-5,5-difluoropiperidin-3-yl)acetic acid]	500 to 5000 nM
CCCn1ncnc1OCc1c(-c2ccc(N3C[C@@H](CC(=O)O)CC(F)(F)C3)c(CC)n2)nnn1C [Example 121, (S)-2-(1-(2-ethyl-6-(1-methyl-5-(((1-propyl-1H-1,2,4-triazol-5-yl)oxy)methyl)-1H-1,2,3-triazol-4-yl)pyridin-3-yl)-5,5-difluoropiperidin-3-yl)acetic acid]	500 to 5000 nM
CCc1nc(-c2nnn(C)c2COc2ncnn2CC(C)C)ccc1N1C[C@@H](CC(=O)O)CC(F)(F)C1 [Example 123, (S)-2-(1-(2-ethyl-6-(5-(((1-isobutyl-1H-1,2,4-triazol-5-yl)oxy)methyl)-1-methyl-1H-1,2,3-triazol-4-yl)pyridin-3-yl)-5,5-difluoropiperidin-3-yl)acetic acid]	100 to 500 nM
CCc1nc(-c2nnn(C)c2COc2nnn(CC(C)C)n2)ccc1N1C[C@@H](CC(=O)O)CC(F)(F)C1 [Example 124, (S)-2-(1-(2-ethyl-6-(5-(((2-isobutyl-2H-tetrazol-5-yl)oxy)methyl)-1-methyl-1H-1,2,3-triazol-4-yl)pyridin-3-yl)-5,5-difluoropiperidin-3-yl)acetic acid]	< 100 nM
CCc1nc(-c2nnn(C)c2COc2nnn(CC3CC3)n2)ccc1N1C[C@@H](CC(=O)O)CC(F)(F)C1 [Example 125, (S)-2-(1-(6-(5-(((2-(cyclopropylmethyl)-2H-tetrazol-5-yl)oxy)methyl)-1-methyl-1H-1,2,3-triazol-4-yl)-2-ethylpyridin-3-yl)-5,5-difluoropiperidin-3-yl)acetic acid]	< 100 nM
CCc1nc(-c2nnn(C)c2COc2cn(CC(C)C)nn2)ccc1N1C[C@@H](CC(=O)O)CC(F)(F)C1 [Example 128, (S)-2-(1-(2-ethyl-6-(5-(((1-isobutyl-1H-1,2,3-triazol-4-yl)oxy)methyl)-1-methyl-1H-1,2,3-triazol-4-yl)pyridin-3-yl)-5,5-difluoropiperidin-3-yl)acetic acid]	100 to 500 nM
CCc1nc(-c2nnn(C)c2COc2cnn(CC(C)C)n2)ccc1N1C[C@@H](CC(=O)O)CC(F)(F)C1 [Example 129, (S)-2-(1-(2-ethyl-6-(5-(((2-isobutyl-2H-1,2,3-triazol-4-yl)oxy)methyl)-1-methyl-1H-1,2,3-triazol-4-yl)pyridin-3-yl)-5,5-difluoropiperidin-3-yl)acetic acid]	< 100 nM
Cc1nc(-c2nnn(C)c2Cn2cc(CC3CC3)nn2)ccc1N1C[C@@H](CC(=O)O)CC(F)(F)C1 [Example 133, (S)-2-(1-(6-(5-((4-(cyclopropylmethyl)-1H-1,2,3-triazol-1-yl)methyl)-1-methyl-1H-1,2,3-triazol-4-yl)-2-methylpyridin-3-yl)-5,5-difluoropiperidin-3-yl)acetic acid]	100 to 500 nM
CCc1nc(-c2cnn(C)c2Cn2cc(CC3CC3)nn2)ncc1N1C[C@@H](CC(=O)O)CC(F)(F)C1 [Example 135, (S)-2-(1-(2-(5-((4-(cyclopropylmethyl)-1H-1,2,3-triazol-1-yl)methyl)-1-methyl-1H-pyrazol-4-yl)-4-ethylpyrimidin-5-yl)-5,5-difluoropiperidin-3-yl)acetic acid]	> 5000 nM
CCc1nc(-c2cnn(C)c2Cn2ncc(CC3CC3)n2)ncc1N1C[C@@H](CC(=O)O)CC(F)(F)C1 [Example 136, (S)-2-(1-(2-(5-((4-(cyclopropylmethyl)-2H-1,2,3-triazol-2-yl)methyl)-1-methyl-1H-pyrazol-4-yl)-4-ethylpyrimidin-5-yl)-5,5-difluoropiperidin-3-yl)acetic acid]	100 to 500 nM
CCCN(C)C(=O)OCc1c(-c2ccc(N3C[C@@H](CC(=O)O)CC(F)(F)C3)c(C)n2)nnn1C [Example 139, (S)-2-(5,5-difluoro-1-(2-methyl-6-(1-methyl-5-(((methyl(propyl)carbamoyl)oxy)methyl)-1H-1,2,3-triazol-4-yl)pyridin-3-yl)piperidin-3-yl)acetic acid]	100 to 500 nM
Cc1nc(-c2nnn(C)c2COC(=O)N(C)CC2CC2)ccc1N1C[C@@H](CC(=O)O)CC(F)(F)C1 [Example 140, (S)-2-(1-(6-(5-((((cyclopropylmethyl)(methyl)carbamoyl)oxy)methyl)-1-methyl-1H-1,2,3-triazol-4-yl)-2-methylpyridin-3-yl)-5,5-difluoropiperidin-3-yl)acetic acid]	100 to 500 nM

Second part, the compound after the results:

IC50	Compound
100 to 500 nM	CCc1nc(-c2nnn(C)c2CNc2noc(CC3CC3)n2)ccc1N1C[C@@H](CC(=O)O)CC(F)(F)C1 [Example 117, (S)-2-(1-(6-(5-(((5-(cyclopropylmethyl)-1,2,4-oxadiazol-3-yl)amino)methyl)-1-methyl-1H-1,2,3-triazol-4-yl)-2-ethylpyridin-3-yl)-5,5-difluoropiperidin-3-yl)acetic acid]
100 to 500 nM	CCc1nc(-c2nnn(C)c2COc2ncnn2CC2CC2)ccc1N1C[C@@H](CC(=O)O)CC(F)(F)C1 [Example 122, (S)-2-(1-(6-(5-(((1-(cyclopropylmethyl)-1H-1,2,4-triazol-5-yl)oxy)methyl)-1-methyl-1H-1,2,3-triazol-4-yl)-2-ethylpyridin-3-yl)-5,5-difluoropiperidin-3-yl)acetic acid]
100 to 500 nM	CCc1nc(-c2nnn(C)c2COc2cn(CC3CC3)nn2)ccc1N1C[C@@H](CC(=O)O)CC(F)(F)C1 [Example 126, (S)-2-(1-(6-(5-(((1-(cyclopropylmethyl)-1H-1,2,3-triazol-4-yl)oxy)methyl)-1-methyl-1H-1,2,3-triazol-4-yl)-2-ethylpyridin-3-yl)-5,5-difluoropiperidin-3-yl)acetic acid]
100 to 500 nM	CCc1nc(-c2nnn(C)c2COc2cnn(CC3CC3)n2)ccc1N1C[C@@H](CC(=O)O)CC(F)(F)C1 [Example 127]
< 100 nM	CCc1nc(-c2nnn(C)c2Cn2ncc(CC3CC3)n2)ccc1N1C[C@@H](CC(=O)O)CC(F)(F)C1 [Example 130, (S)-2-(1-(6-(5-((4-(cyclopropylmethyl)-2H-1,2,3-triazol-2-yl)methyl)-1-methyl-1H-1,2,3-triazol-4-yl)-2-ethylpyridin-3-yl)-5,5-difluoropiperidin-3-yl)acetic acid]
100 to 500 nM	CCc1nc(-c2nnn(C)c2Cn2cc(CC3CC3)nn2)ccc1N1C[C@@H](CC(=O)O)CC(F)(F)C1 [Example 131, (S)-2-(1-(6-(5-((4-(cyclopropylmethyl)-1H-1,2,3-triazol-1-yl)methyl)-1-methyl-1H-1,2,3-triazol-4-yl)-2-ethylpyridin-3-yl)-5,5-difluoropiperidin-3-yl)acetic acid]
< 100 nM	CCc1nc(-c2nnn(C)c2Cn2nncc2CC2CC2)ccc1N1C[C@@H](CC(=O)O)CC(F)(F)C1 [Example 132, (S)-2-(1-(6-(5-((5-(cyclopropylmethyl)-1H-1,2,3-triazol-1-yl)methyl)-1-methyl-1H-1,2,3-triazol-4-yl)-2-ethylpyridin-3-yl)-5,5-difluoropiperidin-3-yl)acetic acid]
100 to 500 nM	CCc1nc(-c2cnn(C)c2Cn2nncc2CC2CC2)ncc1N1C[C@@H](CC(=O)O)CC(F)(F)C1 [Example 134, (S)-2-(1-(2-(5-((5-(cyclopropylmethyl)-1H-1,2,3-triazol-1-yl)methyl)-1-methyl-1H-pyrazol-4-yl)-4-ethylpyrimidin-5-yl)-5,5-difluoropiperidin-3-yl)acetic acid]
100 to 500 nM	CCc1nc(-c2nnn(C)c2Cn2nnc(CC3CC3)n2)ccc1N1C[C@@H](CC(=O)O)CC(F)(F)C1 [Example 137, 2-[(3S)-1-[6-(5-{[5-(cyclopropylmethyl)-2H-1,2,3,4-tetrazol-2-yl]methyl}-1-methyl-1H-1,2,3-triazol-4-yl)-2-ethylpyridin-3-yl]-5,5-difluoropiperidin-3-yl]acetic acid]
100 to 500 nM	CCc1nc(-c2nnn(C)c2Cn2nnnc2CC2CC2)ccc1N1C[C@@H](CC(=O)O)CC(F)(F)C1 [Example 138, 2-[(3S)-1-[6-(5-{[5-(cyclopropylmethyl)-1H-1,2,3,4-tetrazol-1-yl]methyl}-1-methyl-1H-1,2,3-triazol-4-yl)-2-ethylpyridin-3-yl]-5,5-difluoropiperidin-3-yl]acetic acid]
